# Measurements as given in US6943000B2, “JNK3 modulators and methods of use” (priority 1997, dated 2005).
# Legend:
# Assay type in all cases: in vivo, mouse
# mice [1] = experiment: Pentetrazole (PTZ)-induced seizures in wild-type and JNK3(−/−) mice
# From the text: Since the resistance to KA-induced seizures varied between littermates (+/+ and +/− are less resistant than −/− mice), the observed differential susceptibility cannot be attributed to a difference between mouse strains (Schauwecker and Steward, Proc. Nat. Acad. Sci. USA 94:4103-4108, 1997). However, the resistance of JNK3 deficient mice to KA-induced seizures could be due to decreased drug penetration across the blood-brain barrier or an increased GABA (gamma-aminobutyric acid) inhibitory postsynaptic potential (IPSP), or the ablation of a specific signal transduction pathway mediated by the JNK3 protein kinase. To distinguish between these possibilities, the response of JNK3 (−/−) and wild-type mice to another epileptogenic agent, pentetrazole (PTZ) (Sigma), was examined. PTZ was selected due to its ability to induce seizures by blocking the GABA-IPSPs (Ben-Ari et al., Neurosci. 6:1361-1391, 1981).
# Thus, the differential susceptibility to KA toxicity in JNK3(−/−) mice can neither be explained as a consequence of poor drug delivery to the nervous system nor by potent GABA-IPSPs in the neural circuit. Furthermore, we examined the expression of the kainate-type glutamate receptor subunits GluR5-7 (Pharmingen cat. No. 60006E) by immunocytochemistry using standard methods.
# mice [2] = experiment: KA-induced seizures in wild-type and JNK3(−/−) mice
# Procedure: JNK3(−/−) mice and their wild-type littermates were injected intraperitoneally (i.p.) with 30 mg/kg KA to induce seizures (Ben-Ari, supra). In wild-type mice, the administration of KA first induced “staring spells” with abnormal body posture, then progressed to head nodding (“wet-dog shakes”), fore-paw tremor, rearing, loss of postural control, and eventually, continuous convulsions. […] Wild-type and heterozygous mice developed motor symptoms of seizures, including rearing, at 30 to 40 minutes post-injection. The JNK3 (−/−) mice, in contrast, developed much milder symptoms, mainly consisting of “staring” spells and occasional myoclonic tremors. […] Further, JNK3(−/−) mice recovered from the drug administration more rapidly than wild-type mice (FIG. 7). Seizure classifications as shown in FIGS. 7 and 8 are: 1, arrest of motion; 2, myoclonic jerks of the head and neck, with brief twitching movements; 3, unilateral clonic activity; 4, bilateral forelimb tonic and clonic activity; and 5, generalized tonic-clonic activity with loss of postural tone, often resulting in death.
# hippocampal neurons [3] = experiment: Kainate-induced neuronal damage in the hippocampus (Nissl's stain, GFAP, TUNEL, toluidine stain)
# Procedure: These experiments were performed as follows. Wild-type and JNK3 (−/−) mice were killed and fixed by transcardial perfusion of 4% paraformaldehyde and 1.5% glutaraldehyde three days after the injection of KA (30 mg/kg, i.p.). Semithin and thin sections of brain were prepared using a Vibratome and embedded in Epon. Tissue blocks were prepared using a microtome with a diamond tube for 1 μm-thick semithin sections examined by toluidine blue staining, and for ultrathin sections examined by electron microscopy. Nissl's stain was used for initial examination of damage to the hippocampus (Kluver et al., J. Neuropath. Exp. Neuro. 12:400-403, 1953). GFAP immunocytochemistry was also used to assess cell destruction in the hippocampus (Hsu et al., supra). Nissl's staining was also performed as described above. TUNEL assays, used to evaluate apoptosis, were performed using cryostat sections (50 μm) of cerebral hemispheres that were cryoprotected with sucrose. The TUNEL assay was modified from the terminal deoxynucleotidyl transferase (TdT)-mediated dUTP nick end labeling assay (Gavrieli et al., J. Cell. Biol. 119:493-501, 1992). Briefly, tissue sections, directly mounted on a salinated slide, were permeablized with 2% TRITON® X-100 (20 minutes at room temperature) and then incubated for nick end-labeling for 2 hours at 37° C. using 0.32 U/μl TdT (Boehringer Mannheim, cat# 220582) and 2 μM digoxigenin-11-dUTP (Boehringer Mannheim, cat# 1573152) in a final volume of 40 μl. The tissues were incubated with anti-digoxigenin antibody (Boehringer Mannheim, cat# 1333062) diluted 500-fold, and processed for immunocytochemistry using standard procedures (Hsu et al., supra).
# The damage to the hippocampus caused by KA was initially examined by Nissl's stain. The KA-induced cell loss caused either a breach of staining of the pyramidal neurons in the CA3 region or a diffuse sparse staining throughout the CA1 subfield. […] Groups of small pyknotic nuclei and positively TUNEL-labeled cells were found in the hippocampal CA3 subfield devoid of Nissl's staining. […] Since the TUNEL method and the pyknosis morphology only indicated the extent of cell damage at one time point of a dynamic process, immunostaining of damage-induced GFAP was also used as an independent assessment of the extent of cell destruction in the hippocampus. Consistent with the patterns of Nissl's, toluidine, and TUNEL staining, an increased number of strongly GFAP-labeled astrocytes was found either in the hippocampal CA3 or CAl regions. Thus, a combination of Nissl's stain, GFAP immunocytochemistry, TUNEL method, and toluidine stain of semithin sections was used to classify the KA-induced damage in the mouse hippocampus.
# A total of 17 wild-type and 18 JNK3(−/−) mice were examined. The table was compiled from two sets of data. First, wild-type (n=11) and JNK3 (−/−) (n=10) mice were sacrificed on the fifth day after a single injection of KA (30 mg/kg, i.p.). Second, wild-type (n=6) and JNK3 (−/−) (n=8) mice received an injection of KA (30 mg/kg, i. p.) for five consecutive days and examined two days following the final injection. […] The ratio of no cell loss/CA3 lesion/CA3+CA1 lesion was 2/7/2 in the single-injection experiments, and 2/2/2 in the multiple injection experiments.
# hippocampal neurons [4] = experiment: as above; conditions: KA 45 mg/kg, JNK2(−/−) mice as printed
# [5] = test system: c-Jun phosphorylated at Ser-73; experiment: KA-induced phosphorylation of c-Jun in hippocampus (immunocytochemistry); conditions: KA 30 mg/kg i.p., two hours after injection
# Procedure: To further define this phenomenon, the distribution of KA-induced c-Fos and c-Jun immunoreactivity along the synaptic circuit of the hippocampus was examined. In these experiments, homozygous mutant and control wild-type mice were killed and fixed by transcardial perfusion of 4% paraformaldehyde at 2 or 6 hours after the injection of KA (30 mg/kg, i.p.). Brains from both groups were removed, post-fixed for one hour, and sectioned on a Vibratome ([…]). Tissue sections were processed by immunocytochemistry to detect the expression of c-June (Santa Cruz, cat# sc-45), c-Fos (Santa Cruz, cat# sc-52), and phospho-specific c-Jun (Ser-73) (New England Biolabs, #9164S). Sections were floated in a solution of the primary antibody (diluted 200× in PBS) and incubated overnight at room temperature. Secondary antibody incubation, avidin-biotin conjugated peroxidase (Vectastain Elite ABC kit, Vector Lab.), and DAB (3, 3′-diaminobenzidine, Sigma) reactions were performed using standard procedures (Hsu et al., supra). In the absence of KA, there was no detectable c-Fos expression and only a few c-Jun-positive cells within the dentate gyrus. […]
# In addition, there was a dynamic change of the distribution of phosphorylated c-Jun in the wild type mouse hippocampus. […] In contrast, no labeling of phosphorylated c-Jun was detected in the JNK3(−/−) mice at the same time point. […]
# [6] = test system: AP-1 transcriptional activity; experiment: KA-induced AP-1 transcriptional activity (luciferase assay, AP1-luc mice); conditions: KA 30 mg/kg i.p.
# From the text: Since the phosphorylation of c-Jun is an important initial event during the induction of AP-1 transcriptional activity (Whitemarsh et al., supra; Yang et al., supra), whether the observed attenuation of c-Jun phosphorylation would lead to decreased induction of AP-1 transcriptional activity in JNK3 (−/−) mice was examined. JNK(-1-) mice were crossed with transgenic AP-1 luciferase (AP1-luc) mice (Rincon et al., Embo. J. 13:4370-4381, 1994) and progeny back crossed. The JNK3(−/−)/API-Luc(−/+) mice were used in experiments with JNK3(+/+) mice to compare the level of KA-induced AP-1 transcriptional activity in the presence or absence of JNK3. The AP1-luc mice contain the firefly luciferase gene under the control of four copies of a consensus AP-1 binding site in the context of the minimal rat prolactin promoter. It has been established that the expression of luciferase in these mice is due to the presence of the AP-1 regulatory element.
# In the luciferase assay, mice were sacrificed at intervals after injection of KA (30 mg/kg, i.p.), and relative luciferase activity compared with that detected in hippocampal lysates obtained from mice injected with vehicle (saline). Mice were decapitated, brains were dissected, and brain tissues were immediately lysed in buffer containing 25 mM Hepes pH 7.4, 1% TRITON®X-100, 1 mM EDTA, 1 mM phenylmethyl sulfonyl fluoride, and 10 μg/ml leupeptin (Promega, Madison, Wis.). Luciferase activity was measured as described in Rincon and Flavell (Embo. J. 13:4370-4381, 1994). The injection of KA (30 mg/kg, i.p.) caused a large induction of AP-1 transcriptional activity in the hippocampus of wild-type mice, as evidenced by the induction of luciferase activity.
# The relative luciferase activity in the hippocampus and cerebellum prepared from wild-type (+/+) and JNK3 (−/−) mice was measured following KA injection. Each time point represents the mean of three to five (+SEM) individual animals. […]
# [7] = KA 30 mg/kg i.p., wild-type mice
# [8] = KA 30 mg/kg i.p., JNK3 genotype +/+
# [9] = KA 30 mg/kg i.p., JNK3 genotype −/−
structure (smiles),measurement,setting,value
"C1CCc2nnnn2CC1 [PTZ, pentetrazole]","seizure severity, JNK3(−/−) mice versus wild-type littermates","mice [1]; PTZ 30, 40, 50, 60 mg/kg i.p.",comparable severity
same,time to abrupt general tonic-clonic seizures after injection,mice [1]; PTZ i.p.,within five minutes
"C=C(C)[C@H]1CN[C@H](C(=O)O)[C@H]1CC(=O)O [KA, kainic acid]",seizure severity,"mice [2]; KA 30 mg/kg i.p., JNK3(−/−) mice",did not develop grand mal seizures
same,time at which seizure activities subsided,mice [2]; [7],one hour after injection
same,survival,"mice [2]; KA 45 mg/kg i.p., JNK3(−/−) mice",all of the JNK3(−/−) mice survived
same,mice that died from continuous tonic clonic convulsions,"mice [2]; KA 45 mg/kg i.p., wild-type mice",more than 60%
same,hippocampal damage,"hippocampal neurons [3]; KA 30 mg/kg i.p., JNK3(−/−) mice (n=18)",no apparent hippocampal damage
same,Including CA1 cell loss,hippocampal neurons [3]; [8],4 number of animals
same,No perceivable cell loss,hippocampal neurons [3]; [8],4 number of animals
same,Selective CA3 cell loss,hippocampal neurons [3]; [8],9 number of animals
same,Including CA1 cell loss,hippocampal neurons [3]; [9],0 number of animals
same,No perceivable cell loss,hippocampal neurons [3]; [9],18 number of animals
same,Selective CA3 cell loss,hippocampal neurons [3]; [9],0 number of animals
same,animals with damage of the hippocampal CA3 region,hippocampal neurons [3]; [7],53%
same,animals with damage of the hippocampal CA3 region (fraction),hippocampal neurons [3]; [7],9/17
same,animals with massive cell loss throughout the entire hippocampal CA1 region,hippocampal neurons [3]; [7],24%
same,animals with massive cell loss throughout the entire hippocampal CA1 region (fraction),hippocampal neurons [3]; [7],4/17
same,ratio of no cell loss/CA3 lesion/CA3+CA1 lesion,"hippocampal neurons [3]; wild-type mice, KA 30 mg/kg i.p. for five consecutive days, examined two days after final injection",2/2/2
same,ratio of no cell loss/CA3 lesion/CA3+CA1 lesion,"hippocampal neurons [3]; wild-type mice, single injection of KA 30 mg/kg i.p., sacrificed on the fifth day",2/7/2
same,animals with cell damage (fraction),hippocampal neurons [4],2/15
same,animals with cell damage,hippocampal neurons [4]; p<0.005,13%
same,phosphorylated c-Jun in hippocampus,[5]; JNK3(−/−) mice,only a trace amount
same,phosphorylated c-Jun in the dentate gyrus and CA3/CA4 region of the hippocampus,[5]; wild-type mice,high level of phosphorylated c-Jun
same,"AP-1 activity in hippocampus, wild-type compared with JNK3(−/−) mice",[6]; 15 hours after injection,approximately four-fold greater
same,"AP-1 activity in hippocampus, wild-type compared with JNK3(−/−) mice",[6]; three days after injection,more than six times higher
same,time of peak luciferase activity in hippocampus,[6]; wild-type AP1-luc mice,three days
